In patent US20220184071A1, “GEPOTIDACIN FOR USE IN THE TREATMENT OF BACTERIAL URINARY TRACT INFECTIONS” (GlaxoSmithKline Intellectual Property Development Limited, priority 2019, published 2022):
In brackets after ≈: the same amount, converted by molar mass.

Key:
Bacteroides caccae = assay: MIC by broth microdilution, drug-resistant isolates; format: cell-based; details: 1 isolate
Description: Additional analysis was performed from the results of the study described in Method 1 above, to determine the in vitro activity of gepotidacin against gram-negative and gram-positive anaerobic organisms with resistance to ceftriaxone, clindamycin, imipenem, metronidazole, moxifloxacin and piperacillin/tazobactam.

K. pneumoniae = assay: Phase IIa baseline uropathogen susceptibility testing (CLSI broth microdilution); format: cell-based, Klebsiella pneumoniae; details: Klebsiella pneumoniae; Participant 7; read-out: GEP MIC
Description: (§1) This phase IIa single center study evaluated the safety, tolerability, pharmacokinetics, and efficacy of oral gepotidacin 1500 mg BID for 5 days in female subjects with acute cystitis. Clean catch mid-stream urine specimens were obtained for quantitative culture by standard methods. Urine samples were taken from all participants pre-treatment (baseline) and at all post-baseline visits. All urine samples were sent to a central laboratory (PPD Global Clinical Laboratories, Highland Heights, Ky., USA) for Gram stain, quantitative culture, pathogen identification and susceptibility testing. See FIG. 1 for participant disposition and study outline.
(§2) Susceptibility testing by CLSI broth microdilution and gradient diffusion (fosfomycin only) was conducted (CLSI, 2015, Methods for dilution antimicrobial susceptibility tests for bacteria that grow aerobically; approved standard-tenth edition; and CLSI, 2018. Performance Standards for Antimicrobial Susceptibility Testing; Twenty-seventh Informational Supplement M100-S28). Inclusion in the microbiological intent-to-treat population (micro-ITT), required growth of a qualifying baseline uropathogen (≥10^5 CFU/mL). See FIG. 2 for the baseline algorithm.

P. aeruginosa = assay: MIC by CLSI agar dilution, Example 1 Method 2; format: cell-based, Pseudomonas aeruginosa; details: n = 55
Description: Antimicrobial activity was determined in a second study by […] using the CLSI recommended procedure in serial two-fold dilutions and the minimum inhibitory concentration (MIC) was determined as the lowest concentration of the compound that inhibited visible growth.
MICs were determined according to CLSI agar dilution guidelines.

[1] = Phase IIa clinical efficacy (ITT population); format: in vivo, human
Description: as §1
Serial blood and urine PK sampling were performed for the first dose of study treatment on Day 1 and for the time-matched dose on Day 4. Participants took all doses of gepotidacin with food and remained in the clinic to complete a total of 10 doses. Participants were instructed to return for the TOC (Day 10 to 13) and Follow-up (Day 28±3) Visits.
The mean total clinical symptom score in the ITT Population at Baseline was 7.9 (range: 4 to 12) for 4 categories of acute cystitis symptoms consisting of dysuria, frequency, urgency, and lower abdominal or suprapubic pain (score range for each category was 0 to 3). Of the 22 participants enrolled in this Phase IIa study, 19 (86%) and 18 participants (82%) achieved a clinical response of clinical success at the TOC and Follow-up Visits, respectively. […] Lower abdominal or suprapubic pain at Baseline was the most variable symptom category with half of the participants reporting low scores of 0 (27%) or 1 (23%) and the other half of participants reporting high scores of 2 (41%) or 3 (9%). For the other symptom categories, the majority of participants scored a 2.

S. saprophyticus = assay: Phase IIa baseline uropathogen susceptibility testing (CLSI broth microdilution); format: cell-based; details: Staphylococcus saprophyticus; Participant 8; read-out: GEP MIC
Description: as §1, §2

qualifying uropathogens = assay: as above; format: cell-based; details: 8 qualifying baseline uropathogens
Description: as §1, §2

Acidovorax temperans = assay: MIC by CLSI broth microdilution, isolates from UTI patients (Example 7); format: cell-based; details: n=1
Description: (§3) Gepotidacin was tested against the following organisms obtained from UTI patients, in serial two-fold dilutions. The minimum inhibitory concentration (MIC) was determined by broth microdilution according to CLSI methods.

Citrobacter amalonaticus = assay: as above; format: cell-based; details: n=1
Description: as §3

Providencia stuartii = assay: as above; format: cell-based; details: n=1
Description: as §3

[2] = test system: gram-positive anaerobe organisms combined; assay: MIC by CLSI agar dilution, Example 6 Method 1; format: cell-based; details: gram-positive anaerobes combined; read-out: overall MIC90
Description: (§4) Antimicrobial activity was determined by agar dilution using the Clinical and Laboratory Standards Institute (CLSI) recommended procedure.
(§5) The compounds were tested in serial two-fold dilutions and the minimum inhibitory concentration (MIC) was determined as the lowest concentration of the compound that inhibited visible growth. Gepotidacin was tested against 333 gram-negative anaerobic and 203 gram-positive anaerobic isolates collected from clinical samples in North America and Europe from 2000 to 2017; the majority collected from 2013 to 2016.
(§6) Ceftriaxone, clindamycin, imipenem, metronidazole, moxifloxacin and piperacillin/tazobactam were included as comparators.

[3] = test system: all the gram-negative anaerobe organisms combined; assay: MIC by CLSI agar dilution, Example 6 Method 1; format: cell-based; details: all gram-negative anaerobes combined; read-out: overall MIC90
Description: as §4, §5, §6

Bilophila wadsworthia = assay: MIC by CLSI agar dilution, Example 6 Method 1; format: cell-based; details: 26 isolates, read-out: Gepotidacin MIC90
Description: as §4, §5, §6

[4] = test system: Staphylococcus saprophyticus; assay: MIC by CLSI broth microdilution, Example 1 Method 1; format: cell-based
Description: Unless otherwise stated, the Clinical and Laboratory Standards Institute (CLSI) recommended procedure is as set out in the edition of CLSI Approved Standard […]. Methods for Dilution Antimicrobial Susceptibility Tests for Bacteria That Grow Aerobically” at the time of testing. Antimicrobial activity was determined by broth microdilution using the CLSI recommended procedure. Gepotidacin was tested in serial two-fold dilutions and the minimum inhibitory concentration (MIC) was determined as the lowest concentration of the compound that inhibited visible growth. Gepotidacin was tested against 28 strains of Staphylococcus saprophyticus collected from multiple hospitals. Amoxicillin, azithromycin, levofloxacin and cefuroxime were included as comparators. MICs for gepotidacin and comparators were determined by broth microdilution according to CLSI methods.

O=c1ccc2ncc(=O)n3c2n1C[C@H]3CN1CCC(NCc2cc3c(cn2)OCCC3)CC1 [gepotidacin, (2R)-2-({4-[(3,4-dihydro-2H-pyrano[2,3-c]pyridin-6-ylmethyl)amino]-1-piperidinyl}methyl)-1,2-dihydro-3H,8H-2a,5,8a-triazaacenaphthylene-3,8-dione]
Gepotidacin MIC range (Bacteroides caccae; ceftriaxone R): 0.25 µg/mL
Gepotidacin MIC range (Bacteroides caccae; clindamycin R): 4 µg/mL
Gepotidacin MIC range (Bacteroides caccae; moxifloxacin R): 0.25 µg/mL
MIC (K. pneumoniae): 4 µg/mL (≈ 8.92 µM)
MIC50 (P. aeruginosa; Pseudomonas aeruginosa): 8 µg/mL (≈ 17.8 µM)
MIC90 (P. aeruginosa; Pseudomonas aeruginosa): 32 µg/mL (≈ 71.3 µM)
Number of Isolates at Gepotidacin MIC 0.5 mg/L (P. aeruginosa): 1
Number of Isolates at Gepotidacin MIC 1 mg/L (P. aeruginosa): 2
Number of Isolates at Gepotidacin MIC 2 mg/L (P. aeruginosa): 4
Number of Isolates at Gepotidacin MIC 4 mg/L (P. aeruginosa): 18
Number of Isolates at Gepotidacin MIC 8 mg/L (P. aeruginosa): 15
Number of Isolates at Gepotidacin MIC ≥16 mg/L (P. aeruginosa): 15
participants with clinical response of clinical success ([1]; TOC Visit, 22 participants): 19 (86%)
participants with symptom resolution ([1]; at Follow-up): 20 participants
participants with symptom resolution (clinical signs and symptom score of 0) ([1]; at TOC): 19 participants
time to significant improvement of clinical symptoms (all subjects) ([1]; dysuria, frequency, urgency, lower abdominal pain): 24 to 48 h
MIC (S. saprophyticus): 0.06 µg/mL (≈ 0.134 µM)
Gepotidacin MICs ranged (qualifying uropathogens): 0.06 to 4 µg/mL
MIC (Acidovorax temperans): 1 µg/mL (≈ 2.23 µM)
MIC (Citrobacter amalonaticus): 2 µg/mL (≈ 4.46 µM)
MIC (Providencia stuartii): 32 µg/mL (≈ 71.3 µM)
MIC90 [2]: 2 µg/mL
MIC90 [3]: 4 µg/mL
MIC90 (Bilophila wadsworthia): 0.5 µg/mL (≈ 1.11 µM)
MIC90 ([4]; 28 isolates): 0.125 µg/mL (≈ 0.279 µM)
MIC90 ([4]; conclusion to Methods 1 and 2): 0.12 µg/mL (≈ 0.268 µM)
